Measured values from EP0308190A2, “Ultra mild skin cleansing toilet bar with selected mixed polymers” (THE PROCTER & GAMBLE COMPANY, priority 1987, dated 1989).

Test system: skin epidermis

Relative Skin Barrier Penetration Value: 40
Substance: Cocoyl Isethionate
